According to patent publication US20210301315A1, “METHODS FOR TREATING POLYMICROBIAL INFECTIONS” (priority 2017, published 2021):

Legend:
[1] = system: bacterial organisms present in patient urine sample; assay: Antibiotic Resistance (ABR) assay utilizing liquid growth medium; assay type: cell-based; conditions: liquid medium
Experimental: Urine samples suitable for processing with this assay are collected, transported, and stored using BD Vacutainer tubes or other suitable leak-proof sterile containers. Urine samples may be held at room temperature for 48 hours before test results are compromised.
Antibiotic stocks are stored at 2-8° C. and protected from direct sunlight. Prepared antibiotic stock solutions were aliquoted into a 96-deep well plate (ThermoFisher Scientific) to form a 50× Antibiotic Source Plate and then diluted 1:5 to form a 10× Antibiotic Source Plate, as shown in FIG. 12 where each well is identified by antibiotic name and concentration (μg/mL; 10× final concentration). […] One well was assigned sodium azide to ensure no bacterial growth would be observed in that well.
Twenty microliters of each antibiotic solution were aliquoted into the pre-determined wells of a 96-well microplate (VIS 96/F-PS, Eppendorf) from the 10× Antibiotic Source Plate to create ABR testing plates for inoculation. These ABR testing plates were allowed to sit for up to 24 hours before use at 2-8° C. in the dark.
At the time of testing, urine samples were centrifuged to concentrate any bacterial cells and then mixed with liquid Mueller-Hinton medium and incubated for 6-16 hours at 37° C. After this initial incubation, the sample is diluted to 0.5-0.6 McF in saline and then 500 μl of that suspension was added to […] of Mueller-Hinton medium. One-hundred and eighty microliters of the diluted sample is then aliquoted to each well of the ABR microplate already containing 10× antibiotic solution, bringing all of the antibiotics to the desired final concentration. The plate is then sealed and incubated for 12-16 hours at 37° C.
After incubation, the plate was removed from the incubator and carefully uncovered and the OD600 was determined for each appropriate well by spectrophotometer. Five separate measurements were taken of each well on a plate and the mean OD600 measurement calculated for each well.
Controls are depicted in Table 10.
The raw data was then “blanked” using the measurement obtained from the Na-Azide well, as depicted in Table 14.
(§1) To determine whether bacterial organisms present in the patient samples were resistant or sensitive to a particular antibiotic at a certain concentration, blanked OD readings were compared to a threshold OD600 of 0.065 (Table 15). An OD measurement greater than or equal to this threshold was designated Resistant (R) meaning bacterial organisms present in patient sample were resistant to that particular antibiotic at that certain concentration. Any OD measurement less than this threshold was designated Sensitive (S) meaning bacterial organisms present in patient sample were sensitive to that particular antibiotic at that certain concentration.

[2] = system: bacterial organisms present in patient urine sample; assay: Antibiotic Resistance (ABR) assay utilizing agar-containing medium; assay type: cell-based
Experimental: Urine samples suitable for processing with this assay are collected, transported, and stored using BD Vacutainer (gray top) tubes or other suitable leak-proof sterile container. Urine samples may be held at room temperature for 48 hours before test results are compromised.
Antibiotic stocks are stored at 2-8° C. and protected from direct sunlight. Prepared antibiotic stock solutions were aliquoted into a 96-deep well plate (Thermo Fisher Scientific) to form an Antibiotic Source Plate, as shown in FIG. 11 and identified by antibiotic name and concentration (μg/mL; 10× final concentration). […] One well was designated AB-blend which contained a combination of antibiotics to ensure there was no bacterial growth.
One hundred microliters of Mueller-Hinton agar medium was aliquoted into each appropriate well position of a 96-well microplate (VIS 96/F-PS, Eppendorf). The medium was allowed to solidify at room temperature for at least 10 min.
The antibiotics (10 μL) at various concentrations were then aliquoted into desired wells from the Antibiotic Source Plate. After the antibiotics were introduced to the agar medium, the ABR microplates were allowed to sit for at least 1 hr before use. If long-term storage is required, ABR microplates containing antibiotic-infuse agar are stored at 2-8° C. in the dark.
At the time of testing, urine samples were diluted 1:20 in sterile saline and vortexed. Each patient sample utilized a single ABR microplate. Five microliters of diluted patient sample were added to each well of the room temperature microplate, the plate was sealed and incubated for 16-18 hr at 37° C.
After incubation, the plate was removed from the incubator and carefully uncovered. Two-hundred microliters of deionized water were added to each well to suspend cells present above the agar and the plates incubated at room temperature for 30 min. After 30 min, 100 μl from each well was removed to a new plate and the OD600 was determined in a spectrophotometer. Five separate reads were taken of each plate and a mean OD600 measurement calculated.
Controls include: No-antibiotic control, Negative control plate, and AB-Blend. No antibiotic control: Any well containing medium that is not infused with antibiotics to ensure viability of bacterial cells present in patient urine samples and included in each plate. […] Negative control plate: Microplate containing antibiotic-infused agar medium without addition of patient sample or cultured bacterial organisms to ensure non-contamination of reagents. AB-Blend: One or more wells containing a combination of antibiotics to ensure there is no bacterial growth.
The raw data was then “blanked” using the measurement obtained from the AB-Blend well, as depicted in Table 5.
as §1, with “0.025” for “0.065”, “6). Any” for “15). An”

Structure (SMILES) | Blanked (OD600 minus Na-Azide well) ([1]; antibiotic 2 μg/mL) | Mean (OD600) ([1]; antibiotic 2 μg/mL) | Blanked (OD600 minus Na-Azide well) ([1]; antibiotic 4 μg/mL) | Mean (OD600) ([1]; antibiotic 4 μg/mL) | Blanked (OD600 minus Na-Azide well) ([1]; antibiotic 8 μg/mL) | Mean (OD600) ([1]; antibiotic 8 μg/mL) | Blanked (OD600 minus AB-Blend well) ([2]; antibiotic 4 μg/mL) | Mean (OD600) ([2]; antibiotic 4 μg/mL) | Blanked (OD600 minus AB-Blend well) ([2]; antibiotic 8 μg/mL) | Mean (OD600) ([2]; antibiotic 8 μg/mL) | also measured
C[C@H]1COc2c(N3CCN(C)CC3)c(F)cc3c(=O)c(C(=O)O)cn1c23 [Levofloxacin, levofloxacin] | −0.0021 | 0.0436 | −0.0026 | 0.0431 | −0.0014 | 0.0443 | 0.0360 | 0.0744 | 0.0028 | 0.0412 | Blanked (OD600 minus Na-Azide well) ([1]; antibiotic 1 μg/mL): 0.0723; Mean (OD600) ([1]; antibiotic 1 μg/mL): 0.1180; Blanked (OD600 minus AB-Blend well) ([2]; antibiotic 1 μg/mL): 0.0024; Mean (OD600) ([2]; antibiotic 1 μg/mL): 0.0408; Blanked (OD600 minus AB-Blend well) ([2]; antibiotic 2 μg/mL): 0.0017; Mean (OD600) ([2]; antibiotic 2 μg/mL): 0.0401
O=C1CN(/N=C/c2ccc([N+](=O)[O-])o2)C(=O)N1 [Nitrofurantoin, nitrofurantoin] |  |  |  |  |  |  |  |  |  |  | Blanked (OD600 minus Na-Azide well) ([1]; antibiotic 32 μg/mL): 0.0095; Mean (OD600) ([1]; antibiotic 32 μg/mL): 0.0552; Blanked (OD600 minus AB-Blend well) ([2]; antibiotic 32 μg/mL): 0.0003; Mean (OD600) ([2]; antibiotic 32 μg/mL): 0.0387; Blanked (OD600 minus AB-Blend well) ([2]; antibiotic 64 μg/mL): 0.0002; Mean (OD600) ([2]; antibiotic 64 μg/mL): 0.0386
CN(C)[C@@H]1C(O)=C(C(N)=O)C(=O)[C@@]2(O)C(O)=C3C(=O)c4c(O)cccc4[C@@](C)(O)[C@H]3C[C@@H]12 [tetracycline] | 0.1627 | 0.2084 | 0.1767 | 0.2224 | 0.1139 | 0.1596 | 0.3920 | 0.4304 | 0.4012 | 0.4396 | Blanked (OD600 minus Na-Azide well) ([1]; antibiotic 16 μg/mL): 0.0082; Mean (OD600) ([1]; antibiotic 16 μg/mL): 0.0539; Blanked (OD600 minus AB-Blend well) ([2]; antibiotic 16 μg/mL): 0.4166; Mean (OD600) ([2]; antibiotic 16 μg/mL): 0.4550
